Assay results taken from patent publication US4507318A, “1-Aryl 2-aminomethyl cyclopropane carboxylates (Z) as drugs in the treatment of pain” (Pierre Fabre S.A., priority 1981, dated 1985).
Where a name gives a salt, the structure may show the parent alone. Read-outs that look alike come from different tables or passages of the source.

Experiments:
[1] = Solubility in DMA; assay type: physicochemical
[2] = Solubility in water; assay type: physicochemical
[3] = system: mice; assay: Writhing Syndrome (P.B.Q.), analgesic activity after I.P. p-benzoquinone; assay type: in vivo; settings: Mus musculus, po, P.O., read-out: Writhing Syndrome PBQ-ED50 (P.O.)
Description: (a) Writhing Syndrome (P.B.Q.)
After I.P. administration of p-benzoquinone to mice, the products were tested by the method of R. OKUN, S. C. LIDDON and L. LASAGNA, J. Pharmacol. Exptl. Therap., 1963, 139, 107. The results are expressed in ED50 in Table 1.

[4] = system: mice; assay: Hot Plate, analgesic activity; assay type: in vivo; settings: 50 mg/kg SC; mice
Description: The products were tested subcutaneously in mice (50 mg/kg) by the method of N. B. EDDY and D. LEIMBACH, J. Pharm. Exptl. Therap., 1953, 107, 385.

[5] = Toxicity study (ED50 orally and intraperitoneally, method of Miller and Tainter); settings: in vivo
Description: The most interesting compounds of the present invention were subjected to toxicity studies.
The ED50 was determined orally and intraperitoneally and calculated by the method of MILLER and TAINTER (Proc. Soc. Exper. […]. 1944, 57, 261).

[6] = ip, intraperitoneally, read-out: ED50 intraperitoneally
[7] = po, per os, read-out: ED50 per os

Solubility in DMA [1] | Solubility in water (in words) [2] | Compound | ED50 [3] | Hot Plate reaction time [4] | LD50 [5, 6] | LD50 [5, 7]
50% | insoluble in water | CCOC(=O)[C@]1(c2ccccc2)C[C@@H]1CN1CCC(c2ccccc2)CC1 (relative stereo) [Example 20, Hydrochloride of 1-phenyl 1-ethoxycarbonyl 2-(4'-phenylpiperidino)methyl cyclopropane (Z)] |  |  |  | 
 |  | CC(C)OC(=O)[C@]1(c2ccccc2)C[C@@H]1CN(C)C (relative stereo) [Example 36, Hydrochloride of 1-phenyl 1-isopropyloxy-carbonyl 2-dimethylamino methyl cyclopropane (Z)] | 17 mg/kg | 40 s | 130 mg/kg | 400 mg/kg
 |  | CN(C)C[C@H]1C[C@]1(C(=O)OCc1ccccc1)c1ccccc1 (relative stereo) [Example 37, Hydrochloride of 1-phenyl 1-benzyloxy carbonyl-2-dimethyl aminomethyl cyclopropane (Z)] | 92 mg/kg | 30 s | 130 mg/kg | 1000 mg/kg
 |  | CCOC(=O)[C@]1(c2ccccc2)C[C@@H]1CN(C)CCc1ccccc1 (relative stereo) [Example 30] | 80 mg/kg | 20 s | 110 mg/kg | 1000 mg/kg
2% | insoluble in water | CCOC(=O)[C@]1(c2ccccc2)C[C@@H]1CN(Cc1ccccc1)Cc1ccccc1 (relative stereo) [Example 11, Hydrochloride of 1-phenyl-1-ethoxycarbonyl 2-dibenzyl amino-methyl cyclopropane (Z)] |  |  |  | 
 |  | CCOC(=O)[C@]1(c2ccc(Cl)c(Cl)c2)C[C@@H]1CN(C)C (relative stereo) [Example 45, Hydrochloride of 1-(3,4 dichlorophenyl) 1-ethoxycarbonyl 2-dimethylaminomethyl cyclopropane (Z)] | 60 mg/kg | 26 s | 170 mg/kg | 550 mg/kg
5% | insoluble in water | CCOC(=O)[C@]1(c2ccccc2)C[C@@H]1CN(C)C1CCCCC1 (relative stereo) [Example 19, Fumarate of 1-phenyl 1-ethoxycarbonyl 2-N-methyl-N-cyclohexyl-aminomethyl cyclopropane (Z)] |  |  |  | 
